# Calls of active or inactive are those of the source.
# Key:
# [1] = cytotoxicity in HEK293 cells, dose response, cytotoxicity control, cell-based, plate reader, cherry-pick (AID 651899); format: functional
# [2] = HEK293 Cytotoxicity Assay Measured in Cell-Based System Using Plate Reader - 7071-01_Inhibitor_Dose_CherryPick_Activity_Set2.; format: functional
# HEK293 = assay: HEK293T cell cytotoxicity, dose response, cytotoxicity control, ATP luminescence, cherry-pick samples (AID 687005); format: functional, cell-based; settings: Homo sapiens;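 further: cells exposed to compound for 48 hours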
# [3] = molecular target: Adenosylmethionine-8-amino-7-oxononanoate aminotransferase (Mycobacterium tuberculosis, UniProt P9WQ81); assay: Mycobacterium tuberculosis BioA enzyme inhibitor Measured in Biochemical System Using Plate Reader - 2163-02_Inhibitor_Dose_CherryPick_Activity.; format: functional, Mycobacterium tuberculosis UT205
# [4] = Late stage assay provider results from the probe development effort to identify inhibitors of the Plasmodium falciparum M18 Aspartyl Aminopeptidase (M18AAP): radiolabel-based cell-based dose response assay to identify compounds that inhibit P. falciparum growth in RBCs, Set 2..; format: functional
# [5] = HepG2 cell cytotoxicity, dose response, cytotoxicity control, plate reader, cherry-pick, antagonist series (AID 743416); format: functional, cell-based
# [6] = HEK293 cell cytotoxicity, dose response, cytotoxicity control, plate reader, cherry-picked samples (AID 743446); format: functional, cell-based
# [7] = molecular target: T1, Microphthalmia-associated transcription factor (Homo sapiens, UniProt O75030); assay: TRPM1 promoter luciferase signal decrease, dose response, MITF inhibitor project, cell-based, SK-MEL-5, cherry-picked, set 3 (AID 493073); format: functional
# T1 sequence (O75030 whole entry): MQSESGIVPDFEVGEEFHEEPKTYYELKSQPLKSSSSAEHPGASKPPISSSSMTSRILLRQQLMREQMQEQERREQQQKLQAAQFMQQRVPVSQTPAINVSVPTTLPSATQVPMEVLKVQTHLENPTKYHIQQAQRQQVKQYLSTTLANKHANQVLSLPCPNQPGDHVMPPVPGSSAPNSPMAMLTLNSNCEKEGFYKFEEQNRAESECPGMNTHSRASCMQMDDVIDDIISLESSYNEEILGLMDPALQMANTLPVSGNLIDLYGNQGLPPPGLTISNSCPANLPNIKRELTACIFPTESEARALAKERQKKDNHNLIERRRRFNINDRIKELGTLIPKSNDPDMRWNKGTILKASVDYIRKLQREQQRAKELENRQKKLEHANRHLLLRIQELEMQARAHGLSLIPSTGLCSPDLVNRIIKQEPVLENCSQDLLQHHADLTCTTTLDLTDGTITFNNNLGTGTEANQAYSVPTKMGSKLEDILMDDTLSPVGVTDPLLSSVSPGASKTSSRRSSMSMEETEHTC
# [8] = A549 cell cytotoxicity, dose response, cytotoxicity control, plate reader, cherry-pick, antagonist series (AID 743412); format: functional, cell-based
# [9] = Shn3 3'UTR reporter inhibitors, dose response, cell-based, Clone20 osteoblasts, firefly luciferase, cherry-picked (AID 624132); format: functional;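 further: firefly luciferase luminescence from reporter carrying the Shn3 3'UTR in osteoblasts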
# [10] = LGR2 antagonists, dose response, cell-based, HEK293, CRE-luciferase reporter, cherry pick, set 2 (AID 743343); format: functional;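 further: transfected cells were stimulated with diluted bursicon conditioned medium after compound addition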
# [11] = MC4R antagonists, dose response, counter-screen for LGR2 antagonist project, cell-based, plate reader, cherry pick (AID 743444); format: functional;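 further: transfected HEK 293 cells stimulated with alpha-MSH peptide; potency of inhibitors of the alpha-MSH evoked signal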
# [12] = reduction of Shn3 3'UTR firefly luciferase signal, dose response, Schnurri-3 inhibitor project, cell-based, Clone20 osteoblasts, cherry-pick, set 2 (AID 720490); format: functional;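 further: actives lower the luminescence signal as inhibitors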
# [13] = molecular target: T2, Heat shock factor protein 1 (Mus musculus, UniProt P38532); assay: inhibition of MG132-induced HSE-luciferase signal, confirmation, cell-based, NIH3T3, luminescence, dose retest (AID 2382); format: functional;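 further: NIH3T3 fibroblasts with HSF1-driven luciferase reporter stressed by proteasome inhibitor MG132; luminescence from HSF1-driven luciferase expression after 8 hours of MG132 stress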
# T2 sequence (P38532 whole entry): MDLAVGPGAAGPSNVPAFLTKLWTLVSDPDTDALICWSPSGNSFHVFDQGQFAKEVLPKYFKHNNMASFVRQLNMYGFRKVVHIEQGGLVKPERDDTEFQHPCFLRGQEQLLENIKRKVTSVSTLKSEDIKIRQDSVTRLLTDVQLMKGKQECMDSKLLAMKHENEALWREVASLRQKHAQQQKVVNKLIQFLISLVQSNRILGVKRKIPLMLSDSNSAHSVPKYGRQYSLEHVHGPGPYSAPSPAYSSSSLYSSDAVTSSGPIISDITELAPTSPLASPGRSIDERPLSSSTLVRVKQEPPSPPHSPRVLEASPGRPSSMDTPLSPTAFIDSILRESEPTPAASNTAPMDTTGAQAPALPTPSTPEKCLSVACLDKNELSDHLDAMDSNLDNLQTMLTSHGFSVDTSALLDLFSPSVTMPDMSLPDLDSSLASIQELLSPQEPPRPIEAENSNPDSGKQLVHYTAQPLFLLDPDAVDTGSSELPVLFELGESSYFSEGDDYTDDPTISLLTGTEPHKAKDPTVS
# [14] = molecular target: Disintegrin and metalloproteinase domain-containing protein 17 (Homo sapiens, UniProt P78536); assay: ADAM17 protease inhibitors, dose response, counter-screen for ADAM10 exosite inhibitor project, biochemical, quenched FRET substrate (AID 743253)
# [15] = system: Streptococcus sp. 'group A'; assay: growth inhibition of control SK(-) GAS strain, dose response, counter-screen for streptokinase expression inhibitor project, luminescence, kanamycin, BacTiterGlo, confirmation (AID 1900); format: functional, organism-based
# [16] = inhibitors of intracellular T. cruzi replication, confirmation, NIH3T3 host cells, beta-gal luminescence (AID 2044); format: functional, cell-based;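 further: intracellular parasites grown in NIH/3T3 mouse fibroblasts as host cells; luminescent beta-galactosidase reporter signal from transgenic T. cruzi replicating inside host cells; inhibitors lower the luminescence signal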
# [17] = Luminescence Cell-Based Dose Retest to Confirm Inhibitors of Cancer Stem Cells. [Related pubchem assays (depositor defined):AID2717, AID2721]; format: functional; settings: Homo sapiens
# Streptokinase A = molecular target: T3, Streptokinase A (Streptococcus pyogenes serotype M1, UniProt P10520); assay: S. pyogenes streptokinase expression inhibitors, potency, dose response, plasminogen activation absorbance, OD405 (AID 1914); format: functional, Streptococcus pyogenes M1 GAS;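 further: secreted streptokinase activity via plasminogen activation per viability signal from cell pellet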
# T3 sequence (P10520 whole entry): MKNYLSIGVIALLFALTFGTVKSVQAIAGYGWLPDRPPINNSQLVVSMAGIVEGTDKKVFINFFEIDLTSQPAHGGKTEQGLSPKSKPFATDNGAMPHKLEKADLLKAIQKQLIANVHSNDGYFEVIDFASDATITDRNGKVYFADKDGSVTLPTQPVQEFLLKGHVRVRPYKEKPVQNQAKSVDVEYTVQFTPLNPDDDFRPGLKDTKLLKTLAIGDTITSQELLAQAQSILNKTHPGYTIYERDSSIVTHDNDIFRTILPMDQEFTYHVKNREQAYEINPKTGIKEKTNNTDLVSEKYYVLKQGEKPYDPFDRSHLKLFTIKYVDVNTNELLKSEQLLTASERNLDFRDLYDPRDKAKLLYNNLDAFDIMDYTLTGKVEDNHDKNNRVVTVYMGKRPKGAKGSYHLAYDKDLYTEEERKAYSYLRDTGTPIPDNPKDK
# Streptococcus = assay: Group A Streptococcus viability loss, dose response, counter-screen for streptokinase expression inhibitor project, luminescence, BacTiterGlo (AID 1915); format: functional, organism-based;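 further: potency for reduction of bacterial viability or growth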
# [18] = cytotoxicity toward NIH3T3 fibroblasts, dose response, counter-screen, cell-based, ATP luminescence, mouse fibroblasts (AID 2010); format: functional;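 further: cells exposed to compound for about 90 hours before reading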
# [19] = A375 melanoma cell viability loss, dose response, counter-screen for MITF inhibitor project, CellTiter-Glo luminescence, dry powder, set 4 (AID 624364); format: functional, cell-based; settings: A-375;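 further: A375 melanoma cells are MITF independent so this is a counter screen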
# Sequence of Disintegrin and metalloproteinase domain-containing protein 17 (P78536 whole entry, the tested form may be a part): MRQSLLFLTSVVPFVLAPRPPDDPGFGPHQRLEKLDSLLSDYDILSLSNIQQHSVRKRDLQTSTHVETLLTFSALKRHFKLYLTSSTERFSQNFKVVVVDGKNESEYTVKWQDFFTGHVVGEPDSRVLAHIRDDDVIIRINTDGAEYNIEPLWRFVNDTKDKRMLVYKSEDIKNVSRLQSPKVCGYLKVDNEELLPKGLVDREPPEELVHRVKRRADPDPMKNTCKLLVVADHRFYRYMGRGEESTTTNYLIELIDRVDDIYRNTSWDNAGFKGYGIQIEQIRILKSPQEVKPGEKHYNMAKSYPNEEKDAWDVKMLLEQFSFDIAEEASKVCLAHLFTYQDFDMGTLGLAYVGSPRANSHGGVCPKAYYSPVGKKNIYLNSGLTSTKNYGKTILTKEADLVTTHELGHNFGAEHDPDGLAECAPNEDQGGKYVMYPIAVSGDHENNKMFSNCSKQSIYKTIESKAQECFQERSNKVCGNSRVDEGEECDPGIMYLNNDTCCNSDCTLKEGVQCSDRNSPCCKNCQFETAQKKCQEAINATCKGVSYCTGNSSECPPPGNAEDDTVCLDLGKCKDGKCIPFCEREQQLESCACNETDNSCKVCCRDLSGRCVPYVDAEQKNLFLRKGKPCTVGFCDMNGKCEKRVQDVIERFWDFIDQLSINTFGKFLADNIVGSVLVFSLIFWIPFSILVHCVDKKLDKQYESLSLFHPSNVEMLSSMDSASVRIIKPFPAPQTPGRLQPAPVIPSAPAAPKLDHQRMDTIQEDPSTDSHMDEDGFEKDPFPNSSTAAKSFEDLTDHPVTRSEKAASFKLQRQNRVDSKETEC
# Sequence of Adenosylmethionine-8-amino-7-oxononanoate aminotransferase (P9WQ81 whole entry): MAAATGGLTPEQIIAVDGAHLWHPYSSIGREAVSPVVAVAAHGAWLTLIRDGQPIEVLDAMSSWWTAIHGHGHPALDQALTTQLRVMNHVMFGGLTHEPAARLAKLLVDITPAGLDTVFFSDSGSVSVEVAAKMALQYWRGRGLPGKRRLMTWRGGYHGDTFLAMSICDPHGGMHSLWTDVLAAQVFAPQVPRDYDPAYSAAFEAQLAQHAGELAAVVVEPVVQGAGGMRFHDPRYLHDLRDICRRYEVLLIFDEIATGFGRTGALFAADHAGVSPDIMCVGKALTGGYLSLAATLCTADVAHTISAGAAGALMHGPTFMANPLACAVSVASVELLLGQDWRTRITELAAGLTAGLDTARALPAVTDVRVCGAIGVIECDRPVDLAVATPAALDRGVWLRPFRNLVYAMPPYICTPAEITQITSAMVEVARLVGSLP
compound,measurement,setting,value
CC(=O)c1ccc(N2CCN(C(=O)Cc3cccs3)CC2)cc1,AC50,[1],3.82 µM (active)
same,AC50,[2],> 52 µM (inactive)
same,AC50,HEK293,> 52 µM (inactive)
same,AC50,[3],11.6 µM (active)
COc1ccc(CCNc2cncc3ccccc23)cc1OC,IC50,[4],4.5 µM (active)
O=C(O)c1cccc(COc2ccccc2Cl)c1,AC50,[5],> 52 µM (inactive)
same,AC50,[6],> 52 µM (inactive)
same,AC50,[7],0.756 µM (active)
same,AC50,[8],> 52 µM (inactive)
same,AC50,[9],1.48 µM (active)
same,AC50,[10],0.517 µM (active)
same,AC50,[11],0.488 µM (active)
same,AC50,[12],4.74 µM (active)
same,EC50,[13],1.06 µM (active)
O=C(Nc1cccc(S(=O)(=O)Nc2ccc(Cl)cc2)c1)c1cc2c(s1)CCCC2,IC50,[14],> 69.5 µM (inactive)
same,EC50,[15],2.51 µM (active)
same,EC50,[16],1.09 µM (active)
same,AC50,[17],2.28 µM (active)
same,EC50,Streptokinase A,5.01 µM (active)
same,EC50,Streptococcus,1.98 µM (active)
same,EC50,[18],10.9 µM (active)
C=CCNC1=C(NC(=O)c2ccccc2)C(=O)c2ccccc2C1=O,AC50,[19],> 70 µM (inactive)
